# Test results taken from patent US8455475B2 (Gruenenthal GmbH, priority 2009, dated 2013).
# Target: T1, rat B1R (bradykinin receptor 1) (Rattus norvegicus, UniProt P97583)
# T1 construct: expressed in transfected cells; host or cells: CHO K1 cells
# T1 sequence (P97583 1-337): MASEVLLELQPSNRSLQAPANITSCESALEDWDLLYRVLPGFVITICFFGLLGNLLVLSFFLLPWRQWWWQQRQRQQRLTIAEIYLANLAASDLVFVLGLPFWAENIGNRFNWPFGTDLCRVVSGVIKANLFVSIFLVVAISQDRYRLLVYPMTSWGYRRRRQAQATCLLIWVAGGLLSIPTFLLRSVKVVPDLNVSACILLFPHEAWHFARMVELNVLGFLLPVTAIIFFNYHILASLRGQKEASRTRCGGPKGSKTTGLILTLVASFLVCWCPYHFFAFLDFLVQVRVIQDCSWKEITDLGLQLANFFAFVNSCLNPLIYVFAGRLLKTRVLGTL
# Test: FLIPR Ca2+ assay (Fluo-4) on CHO K1 cells stably transfected with the B1R gene of the rat (rB1R cells): % inhibition at 10 μM / IC50, agonist Des-Arg9-bradykinin
# Format: cell-based
# Details: CHO-K1, rat B1R
# Outline: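 Cells were Fluo-4-loaded, then test compound (10 μM, or a concentration series for IC50) was preincubated 10–20 min before agonist challenge at EC80: Lys-Des-Arg9-bradykinin for hB1R, Des-Arg9-bradykinin for rB1R. Peak Ca2+ fluorescence (ex 488/em 540 nm) gave % inhibition versus maximal achievable inhibition.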
row,inhibition at 10 µM [%],SMILES
1,74,"O=C(NC1CCc2ccc(C(=O)N3CCC4(CCN(Cc5c(F)cccc5Cl)CC4)CC3)cc21)c1cccc(Cl)c1Cl (centres unmarked) [IND_CC-727, 2,3-Dichloro-N-[6-[9-[(2-chloro-6-fluoro-phenyl)-methyl]-3,9-diazaspiro[5.5]undecane-3-carbonyl]-2,3-dihydro-1H-inden-1-yl]-benzamide]"
2,58,"Cc1nc(CN2CCC3(CC2)CCN(C(=O)c2ccc4c(c2)C(NC(=O)c2c(C)cccc2Cl)CC4)C3)c[nH]1 (centres unmarked) [IND_CC-728, 2-Chloro-6-methyl-N-[6-[8-[(2-methyl-1H-imidazol-4-yl)-methyl]-2,8-diazaspiro[4.5]decane-2-carbonyl]-2,3-dihydro-1H-inden-1-yl]-benzamide]"
3,75,"Cc1cccc(Cl)c1C(=O)NC1CCc2ccc(C(=O)N3CCC4(CCN(Cc5c(C)noc5C)CC4)C3)cc21 (centres unmarked) [IND_CC-730, 2-Chloro-N-[6-[8-[(3,5-dimethyl-isoxazol-4-yl)-methyl]-2,8-diazaspiro-[4.5]decane-2-carbonyl]-2,3-dihydro-1H-inden-1-yl]-6-methyl-benzamide]"
4,83,"Cc1cccc(Cl)c1C(=O)NC1CCc2ccc(C(=O)N3CCC4(CCN(Cc5ccccc5C#N)CC4)C3)cc21 (centres unmarked) [IND_CC-733, 2-Chloro-N-[6-[8-[(2-cyano-phenyl)-methyl]-2,8-diazaspiro[4.5]decane-2-carbonyl]-2,3-dihydro-1H-inden-1-yl]-6-methyl-benzamide]"
5,81,"Cc1cccc(Cl)c1C(=O)NC1CCc2ccc(C(=O)N3CCC4(CCN(Cc5c(F)cccc5Cl)CC4)C3)cc21 (centres unmarked) [IND_CC-735, 2-Chloro-N-[6-[8-[(2-chloro-6-fluoro-phenyl)-methyl]-2,8-diazaspiro-[4.5]decane-2-carbonyl]-2,3-dihydro-1H-inden-1-yl]-6-methyl-benzamide]"
6,93,"Cc1nc(CN2CCC3(CC2)CCN(C(=O)c2ccc4c(c2)C(NC(=O)c2c(F)cccc2Cl)CC4)C3)c[nH]1 (centres unmarked) [IND_CC-736, 2-Chloro-6-fluoro-N-[6-[8-[(2-methyl-1H-imidazol-4-yl)-methyl]-2,8-diazaspiro[4.5]decane-2-carbonyl]-2,3-dihydro-1H-inden-1-yl]-benzamide]"
7,83,"N#Cc1ccc(CN2CCC3(CC2)CCN(C(=O)c2ccc4c(c2)C(NC(=O)c2c(F)cccc2Cl)CC4)C3)cc1 (centres unmarked) [IND_CC-739, 2-Chloro-N-[6-[8-[(4-cyano-phenyl)-methyl]-2,8-diazaspiro[4.5]decane-2-carbonyl]-2,3-dihydro-1H-inden-1-yl]-6-fluoro-benzamide]"
8,88,"N#Cc1ccccc1CN1CCC2(CC1)CCN(C(=O)c1ccc3c(c1)C(NC(=O)c1c(F)cccc1Cl)CC3)C2 (centres unmarked) [IND_CC-740, 2-Chloro-N-[6-[8-[(2-cyano-phenyl)-methyl]-2,8-diazaspiro[4.5]decane-2-carbonyl]-2,3-dihydro-1H-inden-1-yl]-6-fluoro-benzamide]"
9,71,"O=C(NC1CCc2ccc(C(=O)N3CCC4(CCN(Cc5ccc6ncccc6c5)CC4)C3)cc21)c1cccc(Cl)c1Cl (centres unmarked) [IND_CC-744, 2,3-Dichloro-N-[6-[8-(quinolin-6-yl-methyl)-2,8-diazaspiro[4.5]decane-2-carbonyl]-2,3-dihydro-1H-inden-1-yl]-benzamide]"
10,70,"O=C(NC1CCc2ccc(C(=O)N3CCC4(CCN(Cc5ccc6nccnc6c5)CC4)C3)cc21)c1cccc(Cl)c1Cl (centres unmarked) [IND_CC-745, 2,3-Dichloro-N-[6-[8-(quinoxalin-6-yl-methyl)-2,8-diazaspiro[4.5]decane-2-carbonyl]-2,3-dihydro-1H-inden-1-yl]-benzamide]"

# The next lines start with the compound.
row,SMILES,inhibition at 10 µM [%]
1,"Cc1cccc(Cl)c1C(=O)NC1CCc2ccc(C(=O)N3CCC4(CCN(Cc5cnn(C)c5C)CC4)C3)cc21 (centres unmarked) [IND_CC-729, 2-Chloro-N-[6-[8-[(1,5-dimethyl-1H-pyrazol-4-yl)-methyl]-2,8-diazaspiro-[4.5]decane-2-carbonyl]-2,3-dihydro-1H-inden-1-yl]-6-methyl-benzamide]",76
2,"Cc1cccc(Cl)c1C(=O)NC1CCc2ccc(C(=O)N3CCC4(CCN(Cc5ccc(C#N)cc5)CC4)C3)cc21 (centres unmarked) [IND_CC-731, 2-Chloro-N-[6-[8-[(4-cyano-phenyl)-methyl]-2,8-diazaspiro[4.5]decane-2-carbonyl]-2,3-dihydro-1H-inden-1-yl]-6-methyl-benzamide]",83
3,"Cc1cccc(Cl)c1C(=O)NC1CCc2ccc(C(=O)N3CCC4(CCN(Cc5cccc(C#N)c5)CC4)C3)cc21 (centres unmarked) [IND_CC-732, 2-Chloro-N-[6-[8-[(3-cyano-phenyl)-methyl]-2,8-diazaspiro[4.5]decane-2-carbonyl]-2,3-dihydro-1H-inden-1-yl]-6-methyl-benzamide]",100
4,"Cc1cccc(Cl)c1C(=O)NC1CCc2ccc(C(=O)N3CCC4(CCN(Cc5ccc(F)cc5Cl)CC4)C3)cc21 (centres unmarked) [IND_CC-734, 2-Chloro-N-[6-[8-[(2-chloro-4-fluoro-phenyl)-methyl]-2,8-diazaspiro-[4.5]decane-2-carbonyl]-2,3-dihydro-1H-inden-1-yl]-6-methyl-benzamide]",95
5,"Cc1c(CN2CCC3(CC2)CCN(C(=O)c2ccc4c(c2)C(NC(=O)c2c(F)cccc2Cl)CC4)C3)cnn1C (centres unmarked) [IND_CC-737, 2-Chloro-N-[6-[8-[(1,5-dimethyl-1H-pyrazol-4-yl)-methyl]-2,8-diazaspiro-[4.5]decane-2-carbonyl]-2,3-dihydro-1H-inden-1-yl]-6-fluoro-benzamide]",55
6,"Cc1noc(C)c1CN1CCC2(CC1)CCN(C(=O)c1ccc3c(c1)C(NC(=O)c1c(F)cccc1Cl)CC3)C2 (centres unmarked) [IND_CC-738, 2-Chloro-N-[6-[8-[(3,5-dimethyl-isoxazol-4-yl)-methyl]-2,8-diazaspiro-[4.5]decane-2-carbonyl]-2,3-dihydro-1H-inden-1-yl]-6-fluoro-benzamide]",89
7,"CCn1cc(CN2CCC3(CC2)CCN(C(=O)c2ccc4c(c2)C(NC(=O)c2cccc(Cl)c2Cl)CC4)C3)c(C)n1 (centres unmarked) [IND_CC-742, 2,3-Dichloro-N-[6-[8-[(1-ethyl-3-methyl-1H-pyrazol-4-yl)-methyl]-2,8-diazaspiro[4.5]decane-2-carbonyl]-2,3-dihydro-1H-inden-1-yl]-benzamide]",50
8,"CN(C)c1ncc(CN2CCC3(CC2)CCN(C(=O)c2ccc4c(c2)C(NC(=O)c2cccc(Cl)c2Cl)CC4)C3)cn1 (centres unmarked) [IND_CC-743, 2,3-Dichloro-N-[6-[8-[(2-dimethylamino-pyrimidin-5-yl)-methyl]-2,8-diazaspiro[4.5]decane-2-carbonyl]-2,3-dihydro-1H-inden-1-yl]-benzamide]",80
9,"Cn1nnc2cc(CN3CCC4(CC3)CCN(C(=O)c3ccc5c(c3)C(NC(=O)c3cccc(Cl)c3Cl)CC5)C4)ccc21 (centres unmarked) [IND_CC-746, 2,3-Dichloro-N-[6-[8-[(1-methyl-1H-benzotriazol-5-yl)-methyl]-2,8-diazaspiro[4.5]decane-2-carbonyl]-2,3-dihydro-1H-inden-1-yl]-benzamide]",78
10,"CC(C)CN1CCC2(CC1)CCN(C(=O)c1ccc3c(c1)C(NC(=O)c1cccc(Cl)c1Cl)CC3)C2 (centres unmarked) [IND_CC-747, 2,3-Dichloro-N-[6-[8-(2-methyl-propyl)-2,8-diazaspiro[4.5]decane-2-carbonyl]-2,3-dihydro-1H-inden-1-yl]-benzamide]",59
